Measurements reported in patent US20130131008A1, “LIPOPHILIC MONOPHOSPHORYLATED DERIVATIVES AND NANOPARTICLES” (BOARD OF REGENTS, THE UNIVERSITY OF TEXAS SYSTEM, priority 2011, published 2013).

Key:
[1] = system: L1210 wt cells; experiment: In vitro cytotoxicity assay (MTT), 72 h; type: cell-based, murine; conditions: Mus musculus, 72 h incubation
Excerpt: Human leukemia cell line CCRF-CEM (CCL-119), human pancreatic cancer cell lines PANC-1 (CRL-1469), MIA PaCa-2 (CRL-1420), and BxPC-3 (CRL-1687), human breast adenocarcinoma cell line MCF-7 (HTB-22), and mouse lung cancer cell line TC-1 (CRL-2785) were from the American Type Culture Collection (Rockville, Md.). CCRF-CEM-AraC-8C cells (hENT1 deficient) and CCRF-CEM/dCK^−/− cells (dCK deficient) were kindly provided by Dr. Buddy Ullmann (Oregon Health & Science University, Portland, Oreg.) and Dr. Margaret Black (Washington State University, Pullman, Wash.), respectively. L1210 wt and L1210 10K were kindly supplied by Dr. Lars Petter Jordheim (Université Claude Bernard Lyon I, Lyon, France). TC-1-GR cells were previously developed in our lab. CCRF-CEM, CCRF-CEM-AraC-8C, CCRF-CEM/dCK^−/−, L1210 wt, L1210 10K, TC-1, and TC-1-GR cells were cultured in RPMI 1640 medium. […]
Cells (5,000/well) were seeded in 96-well plates. […] The number of viable cells after the incubation was determined using an MTT assay. […] Absorbance was measured using a BioTek Synergy™ HT Multi-Mode Microplate Reader (BioTek Instruments, Winooski, Vt.) at 570 nm and 630 nm. The fraction of affected (dead) cells (Fa) and the fraction of unaffected (live) cells (Fu) at every dose were calculated, and the Log(Fa/Fu) values were plotted against the Log(concentration of gemcitabine). […]

[2] = system: CCRF-CEM-AraC-8C cells; experiment: In vitro cytotoxicity assay (MTT), 72 h, hENT1 deficient cells; type: cell-based, human; conditions: for Ratio of IC50 in CCRF-CEM-AraC-8C to that in CCRF-CEM: HCl
Excerpt: (§1) Human leukemia cell line CCRF-CEM (CCL-119), human pancreatic cancer cell lines PANC-1 (CRL-1469), MIA PaCa-2 (CRL-1420), and BxPC-3 (CRL-1687), human breast adenocarcinoma cell line MCF-7 (HTB-22), and mouse lung cancer cell line TC-1 (CRL-2785) were from the American Type Culture Collection (Rockville, Md.). CCRF-CEM-AraC-8C cells (hENT1 deficient) and CCRF-CEM/dCK^−/− cells (dCK deficient) were kindly provided by Dr. Buddy Ullmann (Oregon Health & Science University, Portland, Oreg.) and Dr. Margaret Black (Washington State University, Pullman, Wash.), respectively. L1210 wt and L1210 10K were kindly supplied by Dr. Lars Petter Jordheim (Université Claude Bernard Lyon I, Lyon, France). TC-1-GR cells were previously developed in our lab. CCRF-CEM, CCRF-CEM-AraC-8C, CCRF-CEM/dCK^−/−, L1210 wt, L1210 10K, TC-1, and TC-1-GR cells were cultured in RPMI 1640 medium. MCF-7 and PANC-1 cells were cultured in Dulbecco's modified Eagle medium (DMEM), MIA PaCa-2 cells were cultured in DMEM medium with 2.5% horse serum. All media were supplemented with 10% fetal bovine serum (FBS), 100 U/mL of penicillin, and 100 μg/mL of streptomycin (all from Invitrogen, Carlsbad, Calif.).
(§2) Cells (5,000/well) were seeded in 96-well plates. After overnight incubation, they were treated with various concentrations of gemcitabine HCl, gemcitabine derivatives, or gemcitabine derivatives in nanoparticles at 37° C., 5% CO2. TC-1 and TC-1-GR cells were incubated for 48 h. CCRF-CEM, CCRF-CEM-AraC-8C, CCRF-CEM/dCK^−/−, L1210 wt, L1210 10K, and MCF-7 cells were incubated for 72 h, and MIA PaCa-2 and PANC-1 for 96 h. Gemcitabine HCl was dissolved in phosphate-buffered saline (PBS), and gemcitabine derivatives were dissolved in dimethyl sulfoxide (DMSO). […] The number of viable cells after the incubation was determined using an MTT assay. Briefly, 3-(4,5-dimethylthiazol-2-yl)-2,5-diphenyltetrazolium bromide (20 μl, 5 mg/mL) was added in each well and incubated for 3 h. Formazan crystals were solubilized with acidified isopropanol (150 μl) (for CCRF-CEM, CCRF-CEM-AraC-8C, CCRF-CEM/dCK^−/−, L1210 wt, and L1210 10K cells) or DMSO (150 μl) (for TC-1, TC-1-GR, MCF-7, PANC-1, and MIA PaCa-2). Absorbance was measured using a BioTek Synergy™ HT Multi-Mode Microplate Reader (BioTek Instruments, Winooski, Vt.) at 570 nm and 630 nm. The fraction of affected (dead) cells (Fa) and the fraction of unaffected (live) cells (Fu) at every dose were calculated, and the Log(Fa/Fu) values were plotted against the Log(concentration of gemcitabine). IC50 was the dose at Log(Fa/Fu)=0, See e.g., Chou, T. C. & Talalay, P., 1984, Adv. Enzyme Regul. 22:27-55. The experiment was repeated at least three times.

[3] = system: MIA PaCa-2 cells; experiment: In vitro cytotoxicity assay (MTT), 96 h; type: cell-based, human; conditions: Homo sapiens, MIA PaCa-2, 96 h incubation
Excerpt: as §1, §2

For `Cl.Nc1ccn([C@@H]2O[C@H](CO)[C@@H](O)C2(F)F)c(=O)n1` [Gemcitabine HCl, 2′,2′-difluorodeoxycytidine HCl, reference compound], the IC50 [1] was 1.3 ± 0.3 nM, the “Ratio of IC50 in CCRF-CEM-AraC-8C to that in CCRF-CEM” value [2] was 333 and the IC50 ([2]; Homo sapiens, MTT, 72 h incubation, hENT1 deficient) was 998.8 ± 9.4 nM. The “Ratio of IC50 values in CEM-AraC-8C cells” value ([2]; IC50 of gemcitabine HCl divided by that of the derivatives or derivatives in nanoparticles) was 1, the “Ratio of IC50 in CCRF-CEM-AraC-8C to that in CCRF-CEM” value ([2]; listed as gemcitabine HCl) was 344 and the IC50 [3] was 49.7 ± 17.7 nM.
